From ChEMBL document CHEMBL5614422, “Design, synthesis and biological evaluation of N-salicyloyl tryptamine derivatives as multifunctional neuroprotectants for the treatment of ischemic stroke” (Eur J Med Chem, 2024)
Activity calls are given as the source filed them. The calls are words filed in the database; no cut-off is given here.

Legend:
BV-2 [1] = experiment: Anti-inflammatory activity against OGD/R and erastin induced ferroptosis in mouse BV-2 cells assessed as inhibition of TNF-alpha production preincubated for 6 hrs followed by OGD addition and measured after 1 hr by ELISA method; format: functional, cell-based; conditions: dose 10-40 µM, time 7.0 hrs
HT-22 [2] = experiment: Cytoprotective activity against OGD/R induced mouse HT-22 cells assessed as inhibition of intracellular LDH release at 10 uM; format: functional, cell-based
BV-2 [3] = experiment: Anti-inflammatory activity against OGD/R and erastin induced ferroptosis in mouse BV-2 cells assessed as inhibition of IL-18 production preincubated for 6 hrs followed by OGD addition and measured after 1 hr by ELISA method; format: functional, cell-based; conditions: dose 10-40 µM, time 7.0 hrs
HT-22 [4] = experiment: Anti-apoptotic activity in OGD/R mouse HT-22 cells assessed as reduction in proportion of apoptic cells by annexin V-FITC and PI staining based flow cytometry analysis; format: functional, cell-based; conditions: dose 1-10 µM
HT-22 [5] = experiment: Induction of morphological changes in OGD/R induced mouse HT-22 cells assessed as attenuation of cell rounding by microscopic based analysis; format: functional
HT-22 [6] = experiment: Induction of morphological changes in OGD/R induced mouse HT-22 cells assessed as attenuation of synaptic shortening by microscopic based analysis; format: functional, cell-based
HT-22 [7] = experiment: Upregulation of NQO1 protein level in OGD/R induced mouse HT-22 cells at 1 to 10 uM by Western blot analysis; format: functional, cell-based; conditions: dose 1-10 µM
HT-22 [8] = experiment: Upregulation of GPX4 protein level in OGD/R induced mouse HT-22 cells at 1 to 10 uM by Western blot analysis; format: functional, cell-based; conditions: dose 1-10 µM
HT-22 [9] = experiment: Upregulation of Nrf2 mRNA level in OGD/R induced mouse HT-22 cells at 1 to 10 uM by qRT-PCR analysis; format: functional, cell-based; conditions: dose 1-10 µM
HT-22 [10] = experiment: Cytoprotective activity against OGD/R induced mouse HT-22 cells assessed as increase in cell viability at 10 uM measured after 24 hrs in presence of ML385 by MTT assay; format: functional, cell-based
HT-22 [11] = experiment: Antioxidant activity against OGD/R induced oxidative stress in mouse HT-22 cells assessed as reduction in ROS release level at 10 uM in presence of ML385by DCFH-DA staining based flow cytometry analysis; format: functional, cell-based
HT-22 [12] = experiment: Anti-ferroptotic activity against OGD/R induced mouse HT-22 cells decrease as in Fe2+ level at 10 uM in presence of ML385 by cell ferrous calorimetry analysis; format: functional, cell-based
HT-22 [13] = experiment: Anti-ferroptotic activity against OGD/R induced mouse HT-22 cells increase in GSH level at 10 uM in presence of ML385; format: functional, cell-based
HT-22 [14] = experiment: Upregulation of Nrf2 protein level in OGD/R induced mouse HT-22 cells at 10 uM in presence of ML385 by Western blot analysis; format: functional, cell-based
Mus musculus [15] = experiment: Neuroprotective activity against MCAO-R induced 12 hrs fasted male C57BL/6J mouse model assessed as reduction in infarct volume administered as ip once a day for 7 days by TTC staining based analysis; format: functional, organism-based; conditions: time 7.0 day
Mus musculus [16] = experiment: Neuroprotective activity against MCAO-R induced 12 hrs fasted male C57BL/6J mouse model assessed as improvement in neuronal mortality at 10 to 50 mg/kg, ip administered once a day for 7 days by H and E staining based analysis; format: functional, organism-based; conditions: dose 10-50 mg/kg, time 7.0 day
Mus musculus [17] = experiment: Neuroprotective activity against MCAO-R induced 12 hrs fasted male C57BL/6J mouse model assessed as improvement in brain tissue structure at 10 to 50 mg/kg, ip administered once a day for 7 days by H and E staining based analysis; format: functional, organism-based; conditions: dose 10-50 mg/kg, time 7.0 day
Mus musculus [18] = experiment: Neuroprotective activity against MCAO-R induced 12 hrs fasted male C57BL/6J mouse model assessed as alleviation of neurological impairment at 10 to 50 mg/kg, ip administered once a day for 7 days by H and E staining based analysis; format: functional, organism-based; conditions: dose 10-50 mg/kg, time 7.0 day
Mus musculus [19] = experiment: Neuroprotective activity against MCAO-R induced 12 hrs fasted male C57BL/6J mouse model assessed as decrease in MDA level in cerebral ischemic tissue at 10 to 50 mg/kg, ip administered once a day for 7 days; format: functional, organism-based; conditions: dose 10-50 mg/kg, time 7.0 day
Mus musculus [20] = experiment: Neuroprotective activity against MCAO-R induced 12 hrs fasted male C57BL/6J mouse model assessed as decrease in LDH level in cerebral ischemic tissue at 10 to 50 mg/kg, ip administered once a day for 7 days; format: functional, organism-based; conditions: dose 10-50 mg/kg, time 7.0 day
Mus musculus [21] = organism: Mus musculus; experiment: Antiinflammatory activity in MCAO-R induced 12 hrs fasted male C57BL/6J mouse model assessed as reduction in IL-6 level by ELISA method; format: functional, organism-based
Mus musculus [22] = experiment: Neuroprotective activity against MCAO-R induced 12 hrs fasted male C57BL/6J mouse model assessed as decrease in S100 expression in CA3 by measuring decrease in fluorescence intensity administered once a day as ip dose for 7 days by immunofluorescence method; format: functional, organism-based; conditions: dose 10-50 mg/kg, time 7.0 day
Mus musculus [23] = experiment: Neuroprotective activity against MCAO-R induced 12 hrs fasted male C57BL/6J mouse model assessed as decrease in S100 expression in cortex by measuring decrease in fluorescence intensity administered once a day as ip dose for 7 days by immunofluorescence method; format: functional, organism-based; conditions: dose 10-50 mg/kg, time 7.0 day
Mus musculus [24] = experiment: Neuroprotective activity against MCAO-R induced 12 hrs fasted male C57BL/6J mouse model assessed as decrease in S100 expression in CA1 by measuring decrease in fluorescence intensity administered once a day as ip dose for 7 days by immunofluorescence method; format: functional, organism-based; conditions: dose 10-50 mg/kg, time 7.0 day
Mus musculus [25] = experiment: In vivo activation of Nrf2 pathway in MCAO-R induced 12 hrs fasted male C57BL/6J mouse model assessed as increase in HO-1 expression level at 10 to 50 mg/kg, ip by Western blot analysis; format: functional, organism-based; conditions: dose 10-50 mg/kg
Mus musculus [26] = experiment: In vivo activation of Nrf2 pathway in MCAO-R induced 12 hrs fasted male C57BL/6J mouse model assessed as increase in NQO1 expression level at 10 to 50 mg/kg, ip by Western blot analysis; format: functional, organism-based; conditions: dose 10-50 mg/kg
Mus musculus [27] = experiment: In vivo activation of Nrf2 pathway in MCAO-R induced 12 hrs fasted male C57BL/6J mouse model assessed as increase in GCLC expression level at 10 to 50 mg/kg, ip by Western blot analysis; format: functional, organism-based; conditions: dose 10-50 mg/kg
Mus musculus [28] = experiment: Neuroprotective activity against MCAO-R induced 12 hrs fasted male C57BL/6J mouse model assessed as reduction in neurologic deficit score at 10 to 50 mg/kg, ip for 7 days by […]; format: functional, organism-based; conditions: dose 10-50 mg/kg, time 7.0 day

Cc1ccc(C(=O)NCCc2c[nH]c3ccc(N(C)C)cc23)c(O)c1
Activity (BV-2 [1]): Dose-Dependent Effect
Activity (HT-22 [2]): Active
Activity (BV-2 [3]): Dose-Dependent Effect
Activity (HT-22 [4]): Dose-Dependent Effect
Activity (HT-22 [5]): Active
Activity (HT-22 [6]): Active
Activity (HT-22 [7]): Active
Activity (HT-22 [8]): Active
Activity (HT-22 [9]): Active
Activity (HT-22 [10]): inactive
Activity (HT-22 [11]): inactive
Activity (HT-22 [12]): inactive
Activity (HT-22 [13]): inactive
Activity (HT-22 [14]): inactive
Activity (Mus musculus [15]): Dose-Dependent Effect
Activity (Mus musculus [16]): Active
Activity (Mus musculus [17]): Active
Activity (Mus musculus [18]): Active
Activity (Mus musculus [19]): Active
Activity (Mus musculus [20]): Active
Activity (Mus musculus [21]): Active
Activity (Mus musculus [22]): Dose-Dependent Effect
Activity (Mus musculus [23]): Dose-Dependent Effect
Activity (Mus musculus [24]): Dose-Dependent Effect
Activity (Mus musculus [25]): Active
Activity (Mus musculus [26]): Active
Activity (Mus musculus [27]): Active
Activity (Mus musculus [28]): Active
